Measurements reported in PubChem BioAssay (NCI).
Values joined by “and” are separate entries in the source; they are usually repeats but may differ in a detail not shown here. Identical values can stand only once.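 Where inhibition never reached the appropriate level, the endpoint shown equals the highest concentration tested. Otherwise, values were interpolated linearly from a five-concentration, 48-hour dose response in 96-well plates. Abbreviation: GI50, concentration required for 50% inhibition of growth. At the TGI there is no net growth.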

What was measured:
Assay in all cases: inhibition of tumour cell growth, NCI panel, 48 h
IGROV1 ovarian = system: IGROV1 ovarian
HCT-116 colon = system: HCT-116 colon
UO-31 renal = system: UO-31 renal
BT-549 breast = system: BT-549 breast
A549 NSCLC = system: A549 NSCLC
ACHN renal = system: ACHN renal
A498 renal = system: A498 renal
EKVX NSCLC = system: EKVX NSCLC
MDA-MB-435 = system: MDA-MB-435
SF-295 CNS = system: SF-295 CNS

Row | SMILES | GI50 (IGROV1 ovarian) [nM] | TGI (IGROV1 ovarian) [µM] | GI50 (HCT-116 colon) | TGI (HCT-116 colon) [µM] | GI50 (UO-31 renal) | TGI (UO-31 renal) [µM] | GI50 (BT-549 breast) | TGI (BT-549 breast) [µM] | GI50 (A549 NSCLC) | TGI (A549 NSCLC) [µM] | GI50 (ACHN renal) [nM] | TGI (ACHN renal) [µM] | GI50 (A498 renal) [nM] | TGI (A498 renal) [µM] | GI50 (EKVX NSCLC) | TGI (EKVX NSCLC) [µM] | GI50 (MDA-MB-435) [nM] | TGI (MDA-MB-435) [µM] | GI50 (SF-295 CNS) | TGI (SF-295 CNS) [µM]
1 | Cc1ccnc2c1NC(=O)c1cccnc1N2C1CC1 | > 100000 | > 100 | > 100000 nM | > 100 | 48700 nM | > 100 | > 100000 nM | > 100 | > 100000 nM | > 100 | > 100000 | > 100 | > 100000 | > 100 | > 100000 nM | > 100 | > 100000 | > 100 | – | –
2 | C[C@]12CC[C@H]3[C@@H](C[C@@H]4SC(Nc5cccc(F)c5)=N[C@@]45CC(=O)CC[C@]35C)[C@@H]1CCC2=O | 1890 | 3.83 | 1590 nM | 3.24 | 1670 nM | 3.59 | 1540 nM | 3.61 | 2580 nM | 7.5 | 1780 | 3.24 | 2160 | 6.77 | 2500 nM | 18.5 | 2740 | 13.1 | 1190 nM | 2.97
3 | O=[N+]([O-])c1ccc2nc(N/N=C/c3ccc(O)cc3)sc2c1 | 3840 | > 100 | 2890 nM | > 100 | 8220 nM | > 100 | 12300 nM | > 100 | 3520 nM | 29.4 | 4630 | > 100 | 5190 | 27.2 | 7370 nM | > 100 | 3610 | 91.9 | 5610 nM | > 100
4 | O=C(Nc1ccc(-n2cc(-c3ccncc3)c(-c3ccc(Cl)c(O)c3)n2)cc1)c1cc(Cl)cc(Cl)c1 | > 100000 | > 100 | 2690 nM | > 100 | 3940 nM | > 100 | 2530 nM | > 100 | > 28000 nM | > 100 | 10400 | > 100 | 17300 | > 100 | 50700 nM | > 100 | 3450 | > 100 | 738 nM | 2.79
5 | CS(=O)(=O)c1ccc(C(F)(F)F)cc1NC(=O)Nc1cnc(Oc2ccc(-c3cc(Cl)cnc3N)cc2)nc1 | 1730 | 6.04 | 2170 nM | 4.82 | 1860 nM | 6.72 | 2260 nM | 6.5 | 3070 nM | > 32.1 | 1980 | 6.32 | 1780 | 5.09 | 2570 nM | > 37.5 | 2230 | 5.79 | 1990 nM | 5.71
6 | Cc1cc(N2CCN(C)CC2)nc(NC2CCCC(Nc3ccnc4cc(Cl)ccc34)C2)n1 (stereo not drawn) | 2240 | 7.85 | 1460 nM | 3.74 | 1490 nM | 2.86 | 2080 nM | 5.76 | 3140 nM | 11 | 1860 | 3.51 | 4310 | 15.1 | 2810 nM | 12.5 | 1800 | 3.37 | 1680 nM | 3.25
7 | Nc1cc(C(F)F)c(-c2nc(N3[C@@H]4CC[C@H]3COC4)nc(N3[C@@H]4CC[C@H]3COC4)n2)cn1 | 146 | 1.54 | 769 nM | > 100 | 119 nM | 6.85 | 179 nM | 2.77 | 341 nM | > 100 | 302 | > 100 | 36.7 | 0.232 | 277 nM | 6.61 | 378 | > 30.6 | 190 nM | 1.78
8 | COc1ccc2[nH]cc(/C=C3\C(=O)Nc4ccccc43)c2c1 | 2820 | 16.8 | 3410 nM | 14.5 | 6940 nM | 32.4 | 2900 nM | 21.4 | 4680 nM | 24.4 | 5850 | 37.5 | 3150 | 15.1 | 2730 nM | 15.1 | 2390 | 5.97 | 10800 nM | 30
9 | O=C1OC(c2ccc([N+](=O)[O-])cc2)=N/C1=C\c1ccc(O)cc1 | – | > 100 | – | > 100 | – | – | – | > 100 | – | > 100 | – | > 100 | – | > 100 | – | > 100 | – | > 100 | – | > 100
10 | NC(=O)c1c(OCc2c(F)cc(Br)cc2F)nsc1NC(=O)NCCCCN1CCCC1 | 327 | 4.29 | 2220 nM | 8.41 | 498 nM | 2.1 | 6640 nM | > 10 | 2970 nM | > 10 | 1180 | 5.25 | 86 | 0.91 | > 10000 nM | > 10 | 2260 | 6.75 | 2260 nM | > 10
11 | COc1cc(/C=C2\C(=O)N(c3c(Cl)cccc3Cl)c3ccccc32)cc(OC)c1O | 1010 | 15 | 292 nM | 4.83 | 769 nM | 12.3 | 3200 nM | 18.4 | 1240 nM | 10.1 | 590 | 14.2 | 5590 | 16.1 | 5230 nM | 25.1 | 626 | 15.4 | 702 nM | 16.7
12 | C=CC1=C(C)C2=NC1=CC1=NC(=C(CC)/C1=C/O)C=C1C=C3C(=O)C(C(=O)OC)C(=C4NC(=C2)C(C)C4CCC(=O)OC/C=C(\C)CCCC(C)CCCC(C)CCCC(C)C)C3=N1 (stereo not drawn) (tested in a mixture with another compound) | – | > 100 | – | > 100 | – | > 100 | – | > 100 | – | > 100 | – | > 100 | – | > 100 | – | > 100 | – | > 100 | – | > 100
13 | CCOC(=O)C(=Cc1ccc(Br)cc1)C(=O)OCC | 1810 | 3.94 | 1400 nM | 2.92 | 1570 nM | 3.34 | 1490 nM | 3.11 | 2280 nM | 5.83 | 2090 | 4.45 | 2180 | 5.14 | 1880 nM | 4.64 | 2160 | 6.91 | 2740 nM | 9.36
14 | CSC(=S)NN=C1CCCCC1 | – | 43.3 | – | > 100 | – | > 100 | – | > 100 | – | > 100 | – | 56 | – | > 100 | – | > 100 | – | > 100 | – | > 100
15 | O=C1C(Nc2ccccn2)=C(I)C(=O)c2ncccc21 | 741 | 2.25 | 372 nM | 1.61 | – | – | 1540 nM | 3.14 | 1280 nM | 2.88 | 403 | 4.49 | 1260 | 2.74 | 1620 nM | 3.3 | 307 | 0.947 | 1190 nM | 2.56
16 | C/C=C(/C)C(=O)OC1C=C(CO)C(=O)C(OC(=O)/C(C)=C\C)C1C(C)C (stereo not drawn) | 960 | 2.43 | 490 nM | 1.67 | 1290 nM | 2.57 | 1450 nM | 2.88 | 1450 nM | 2.94 | 541 | 1.69 | 1550 | 2.95 | 1750 nM | 3.22 | 950 | 2.33 | 1820 nM | 3.35
17 | O=c1cccc(C#CCCCCOC2CCCO2)o1 (stereo not drawn) | 37200 | > 88.8 | 6390 nM | > 23.2 | 9070 nM | > 57.6 | 3350 nM | 26.4 | 9160 nM | > 48.8 | 27500 | 60.5 | 4090 | – | 8270 nM | 39 | 16100 | 44.8 | 18400 nM | > 41.4
18 | C=CC(=O)Nc1cc2c(Nc3ccc(OCc4ccccn4)c(Cl)c3)ncnc2cc1OCCN1CCOCC1 | 125 | 4.01 | 2990 nM | 14.5 | 646 nM | > 100 | 8860 nM | 37.4 | 6400 nM | > 100 | 201 | > 100 | 1480 | 7.23 | 775 nM | > 73.2 | 5940 | > 86.5 | 4870 nM | > 100
19 | CC(=O)N1c2ccccc2C23CCN4CC5=CCOC(O)C(C5CC42)C13 (stereo not drawn) | – | > 100 | – | > 100 | – | > 100 | – | > 100 | – | > 100 | – | > 100 | – | > 100 | – | > 100 | – | > 100 | – | > 100
20 | C#C[C@]1(O)CC[C@H]2[C@@H]3CC=C4c5nc(Nc6ccc(OC)cc6OC)sc5CC[C@]4(C)[C@H]3CC[C@@]21C | 1990 | 7.11 | 1210 nM | 2.7 | 1360 nM | 5.16 | 656 nM | 4.77 | 2680 nM | 43.9 | 2060 | 10.2 | 152 | 1.23 | 2660 nM | 17.8 | 1760 | 4.39 | 249 nM | 0.613
21 | Cc1ccc(NC2=C(Cl)C(=O)c3nc(C)ccc3C2=O)cc1 | 1540 | 3.35 | 1320 nM | 2.68 | 1530 nM | 2.88 | 1450 nM | 2.82 | 1810 nM | 4.39 | 1590 | 2.97 | 53.8 | 3.81 | 1550 nM | 2.92 | 1480 | 2.88 | 1550 nM | 2.95
22 | COC(=O)c1c2c(c(C)[n+]([O-])c1C)C(=O)C(NCc1ccc(F)c(Cl)c1)=CC2=O | – | – | 2340 nM | 10.2 | 2110 nM | 7.46 | 1880 nM | 5.81 | 2230 nM | 8.15 | 2100 | 7.9 | 1520 | 3.68 | 1930 nM | 5.18 | 1470 | 2.87 | 1620 nM | 4.26
23 | O=C1c2cccc3c(N4CCN(c5ccc6c7c(cccc57)C(=O)N(CCN5CCNCC5)C6=O)CC4)ccc(c23)C(=O)N1CCN1CCNCC1 | 6320 | 29.4 | 3800 nM | 42.9 | 12800 nM | 33 | 19000 nM | 39.3 | 16300 nM | 35.6 | 7230 | 22.5 | 17300 | 36.4 | 20900 nM | 47.1 | 13200 | 34.2 | 15500 nM | 35.7
24 | O=[N+]([O-])c1ccc(N(CCO)CCO)c2c1no[n+]2[O-] | 1750 | 7.42 | 1100 nM | 3.03 | 2010 nM | 8.65 | 1180 nM | 4 | 1830 nM | 8.92 | 768 | 5.12 | 1580 | 3.68 | 1800 nM | 6.66 | 1510 | 4.87 | 803 nM | 3.38
25 | NC(N)=NC(N)=NCCc1ccccc1 | > 100000 | > 100 | 92500 nM and 36300 nM | > 100 | 98900 nM and 38500 nM | > 100 | > 100000 nM and 32800 nM | > 100 | > 100000 nM and 97100 nM | > 100 | > 100000 | > 100 | – | > 100 | 6790 nM and 7740 nM | > 100 | > 100000 | > 100 | 53200 nM and > 100000 nM | > 100
26 | Nc1ccc(-c2ccc(-c3nc4ccccc4[nH]3)cc2)cc1 | 26200 | > 82.4 | 2450 nM | > 100 | 10500 nM | > 100 | 13200 nM | > 61.6 | – | > 95.5 | 13600 | > 92.8 | 33600 | > 100 | 1470 nM | > 78.2 | < 19.2 | > 100 | – | –
